For seven compounds, inhibition results are on record in patent US7608619B2, “Substituted oxazole compounds with analgesic activity” (Gruenenthal GmbH, priority 2005, dated 2009).

The target in the assay is T1, human μ-opiate receptor (Homo sapiens, UniProt P35372).
T1 construct: purchased Nen company, Zaventem, Belgium RB-HOM; host or cells: CHO-K1 cells (membrane preparation)
T1 sequence (P35372 whole entry): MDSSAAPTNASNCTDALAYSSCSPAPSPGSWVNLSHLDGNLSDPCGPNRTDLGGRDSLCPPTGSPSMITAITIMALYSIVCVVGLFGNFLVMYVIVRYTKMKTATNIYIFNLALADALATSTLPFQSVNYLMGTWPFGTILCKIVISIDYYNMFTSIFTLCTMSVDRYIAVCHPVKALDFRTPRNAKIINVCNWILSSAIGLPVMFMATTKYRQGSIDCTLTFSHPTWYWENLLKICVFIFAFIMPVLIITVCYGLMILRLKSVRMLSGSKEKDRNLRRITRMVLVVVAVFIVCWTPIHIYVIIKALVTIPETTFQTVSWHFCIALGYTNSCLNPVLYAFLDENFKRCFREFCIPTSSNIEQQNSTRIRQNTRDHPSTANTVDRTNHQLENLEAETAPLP
Nature of the assay: Affinity for the human μ-opiate receptor ([3H]-naloxone displacement, SPA, CHO-K1 membrane preparation). The settings on record: test substance 1 μmole/l; displacement of 1 nmole/l [3H]-naloxone; percentage inhibition of the specific binding; read-out: μ-opioid receptor, % inhibition [1 μM]. Put shortly:
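[3H]-naloxone (1 nmol/l) displacement by SPA with WGA beads, using membranes of CHO-K1 cells expressing the receptor, in 50 mmol/l Tris-HCl with 0.05% azide and 0.06% BSA; 90 min at room temperature. Non-specific binding defined with 25 μmol/l naloxone. Value is % inhibition of specific binding at 1 μmol/l test compound.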
Turning to `CCN(CC)c1oc(C(C2CCC(C(c3cccs3)N(C)C)CC2)N(CC)CC)nc1Cc1ccccc1` (stereo not shown) [compound 50, (4-benzyl-2-{diethylamino-[4-(dimethylaminothiophen-2-yl-methyl)-cyclohexyl]-methyl}-oxazol-5-yl)-diethylamine], the inhibition (in general, the percentage by which the read-out fell short of the control) at 1 µM was 83%. On to `CN(C)C(c1ccc(Cl)cc1)C1CCC(C(c2nc(Cc3ccccc3)c(N3CCOCC3)o2)N2CCOCC2)CC1` (stereo not shown) [compound 130, [{4-[(4-benzyl-5-morpholin-4-yl-oxazol-2-yl)-morpholin-4-yl-methyl]-cyclohexyl}-(4-chlorophenyl)-methyl]-dimethylamine], for which the inhibition at 1 µM was 77%. In the case of `CCN(CC)C(CC1CCC(C(c2ccc(Cl)cc2)N(C)C)CC1)c1nc(Cc2ccccc2)c(N(C)CCc2ccccc2)o1` (stereo not shown) [compound 89, [4-benzyl-2-(2-{4-[(4-chlorophenyl)-dimethylaminomethyl]-cyclohexyl}-1-diethylaminoethyl)-oxazol-5-yl]-methyl-phenethylamine], the inhibition at 1 µM is 87%.

Regarding `CCN(CC)c1oc(C(C2CCC(C(c3ccc(Cl)cc3)N(C)C)CC2)N2CCCCC2)nc1Cc1ccccc1` (stereo not shown) [compound 39, [4-benzyl-2-({4-[(4-chlorophenyl)-dimethylaminomethyl]-cyclohexyl}-piperidin-1-yl-methyl)-oxazol-5-yl]-diethylamine], the inhibition at 1 µM turned out to be 75%. As to `CN(C)C(c1cccs1)C1CCC(CC(c2nc(Cc3ccccc3)c(N3CCOCC3)o2)N2CCN(c3ccc(F)cc3)CC2)CC1` (stereo not shown) [compound 161, [(4-{2-(4-benzyl-5-morpholin-4-yl-oxazol-2-yl)-2-[4-(4-fluorophenyl)-piperazin-1-yl]-ethyl}-cyclohexyl)-thiophen-2-yl-methyl]-dimethylamine], the inhibition at 1 µM stood at 87%. `COc1ccc(N2CCN(c3oc(C(C4CCC(C(c5cccs5)N(C)C)CC4)N4CCOCC4)nc3Cc3ccccc3)CC2)cc1` (stereo not shown) [compound 140, {[4-({4-benzyl-5-[4-(4-methoxyphenyl)-piperazin-1-yl]-oxazol-2-yl}-morpholin-4-yl-methyl)-cyclohexyl]-thiophen-2-yl-methyl}-dimethylamine]: the inhibition at 1 µM was 67%. As to `CN(C)C(c1cccc(F)c1)C1CCC(C(c2nc(Cc3ccccc3)c(N3CCOCC3)o2)N2CCOCC2)CC1` (stereo not shown) [compound 121, [{4-[(4-benzyl-5-morpholin-4-yl-oxazol-2-yl)-morpholin-4-yl-methyl]-cyclohexyl}-(3-fluorophenyl)-methyl]-dimethylamine], the inhibition at 1 µM came out at 67%.
